Source: patent US20070004635A1, “Method of treating interferon non-responders using HCV protease inhibitor” (Schering Corporation, priority 2005, published 2007)

How the values were obtained:
[1] = test system: HCV Genotype 1 (either Genotype 1a or Genotype 1b); experiment: Rising multiple dose study in non-responder patients, HCV-RNA viral load by RT-PCR; type: in vivo
Description: A rising multiple dose study was conducted in four groups of non-responder patients in which 100, 200 and 400 mg BID and 400 mg TID dosages of the compound of Formula la were administered for 14 days. […] The methodology used was a randomized, placebo controlled, multi-center, third-party-blind, multiple-dose study of the compound of Formula Ia in non-responders conducted in accordance with Good Clinical Practices. For the purpose of this study, it should be noted that the non-responders also were patients in whom one or more symptoms were established in association with, or the possibility of one or more symptoms was suspected of in association with, HCV Genotype 1 (either Genotype 1a or Genotype 1b) specifically. In order to measure viral load, the Hepatitis C virus RNA (HCV-RNA) is measured by extracting total RNA from plasma or serum samples and using an in-house real-time reverse transcriptase polymerase chain reaction (RT-PCR) assay with a lower limit of detection of 29 International Units (IU)/mL. The amplification target is the 5′-Untranslated region (UTR) of the HCV genome. An internal RNA control is added to each sample to assess the efficiency of RNA extraction. Appropriate negative and positive controls are added in each assay run. The assay method has been validated against the WHO International Standard for HCV. The HCV-RNA amount in a sample is reported as copies of HCV-RNA per mL of sample and also as HCV IU per mL of sample. When <100 copies of HCV-RNA per mL are found, the HCV-RNA is considered to be undetectible.

[2] = test system: HCV Genotype 1 (1a or 1b); experiment: Parallel group, rising multiple-dose, 3 period crossover study in non-responders, HCV-RNA viral load; type: in vivo, patients
Description: In order to measure viral load, the Hepatitis C virus RNA (HCV-RNA) is measured by extracting total RNA from plasma or serum samples and using an in-house real-time reverse transcriptase polymerase chain reaction (RT-PCR) assay with a lower limit of detection of 29 International Units (IU)/mL. The amplification target is the 5′-Untranslated region (UTR) of the HCV genome. An internal RNA control is added to each sample to assess the efficiency of RNA extraction. Appropriate negative and positive controls are added in each assay run. The assay method has been validated against the WHO International Standard for HCV. The HCV-RNA amount in a sample is reported as copies of HCV-RNA per mL of sample and also as HCV IU per mL of sample. When <100 copies of HCV-RNA per mL are found, the HCV-RNA is considered to be undetectible.
A second study was commenced in patients having detectible levels ([…] copies per mL tissue or fluid) HCV Genotype 1 (1a or 1b) and whom were already established as non-responders from previous trials.
The methodology of the study was a parallel group, rising, multiple-dose, 3 period crossover (within each group) study in which subjects are treated with pegylated interferon (PEG-Intron, commercially available from Schering-Plough), 1.5 mcg/kg of the compound of Formula Ia or combination treatment of PEG-Intron 1.5 mcg/kg and the compound of Formula Ia. The doses of the compound of Formula Ia used for each group were 200 mg TID or 400 mg TID.
Twelve patients were treated in a random sequence with each 200 mg TID dose of the compound of Formula Ia alone for 7 days, PEG-Intron once weekly for two doses, and a combination treatment of 200 mg TID of the compound of Formula la plus PEG-Intron for 14 days. Preliminary results from the 200 mg TID dose group are illustrated in FIG. 2.

Structure (SMILES): CC(C)(C)NC(=O)N[C@H](C(=O)N1C[C@H]2[C@@H]([C@H]1C(=O)NC(CC1CCC1)C(=O)C(N)=O)C2(C)C)C(C)(C)C (mixture of isomers) [Formula Ia]
- average maximum reduction of viral load from baseline ([1]; 400 mg TID for 14 days, monotherapy, 10 non-responder patients): 2 logs
- effect of monotherapy on viral load ([1]; 100, 200 and 400 mg BID and 400 mg TID for 14 days): reduced viral load in all patients
- HCV-RNA viral load following discontinuation of treatment ([1]; after the 14-day treatment, all patients): returned to baseline levels in all patients
- mean maximum HCV-RNA reduction ([2]; 200 mg TID alone for 7 days, preliminary results): 0.85 logs
- average maximum reduction in HCV-RNA viral load ([2]; 200 mg TID in combination with PEG-Intron 1.5 mcg/kg weekly, two weeks of treatment): 2.4 logs
- course of viral load in the second week ([2]; 200 mg TID in combination with PEG-Intron, 14 days): viral load continued to decline in the second week
- HCV-RNA viral load level of one patient at the end of therapy (undetectible) ([2]; 200 mg TID in combination with PEG-Intron, end of 14 days, one patient (decrease by 4.5 logs)): < 100 copies per mL of tissue or fluid
